Assay results reported in patent US8008303B2, “Biphenyl derivatives and their use in treating hepatitis C” (AstraZeneca AB, priority 2005, dated 2011).
Like-named read-outs stand apart in the source and are kept apart here.

Experiments:
[1] = system: HCV replicon cells Huh 9B; assay: HCV replicon assay (luciferase readout); format: cell-based
Summary of the method: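 Compounds, made up at twice final strength (final DMSO 1%), were added to subgenomic replicon cells one day after plating. Incubation then ran 72 h at 37 °C, 5% CO2, without G418. Replication was quantified as firefly luciferase luminescence in lysed cells, with cytotoxicity assessed on a duplicate clear plate.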

[2] = system: HCV replicon cells Huh 9B; format: cell-based
[3] = Hepatitis C virus, 72 h, concentration reducing replicon level (luciferase activity) by 50% vs untreated cell control, 72 h incubation
[4] = concentration reducing total cell area by 50% relative to DMSO controls, methylene blue, absorbance 620 nm, 72 h incubation

| Structure (SMILES) | IC50 [1, 3] [nM] | TD50 [2, 4] | IC50 [1] [nM] | TD50 [2] | IC50 ([1]; concentration reducing replicon level (luciferase activity) by 50% vs untreated cell control, 72 h incubation) [nM] |
| --- | --- | --- | --- | --- | --- |
| CCCS(=O)(=O)N1CCN(Cc2ccc(NC(=O)c3ccc(-c4cc(NC(=O)[C@@H]5CCCCN5)ccc4OC(F)(F)F)cc3)cc2)CC1 [Example 238, (S)-Piperidine-2-carboxylic acid (4′-{4-[4-(propane-1-sulfonyl)-piperazin-1-ylmethyl]-phenylcarbamoyl}-6-trifluoromethoxy-biphenyl-3-yl)-amide] | < 1000 | * (* < 50 μM) | – | – | – |
| Cc1ccc(C(=O)N2CCC(N3CCCC3)CC2)cc1-c1ccc(C(=O)Nc2ccc(CN3CCS(=O)(=O)CC3)cc2)cc1 [Example 128, 2′-Methyl-5′-(4-pyrrolidin-1-yl-piperidine-1-carbonyl) -biphenyl-4-carboxylic acid [4-(1,1-dioxo-1lambda*6*-thiomorpholin-4-ylmethyl)-phenyl]-amide] | 1000 to 5000 | * (* < 50 μM) | – | – | – |
| Cc1ccc(C(=O)NCCN2CCCCC2)cc1-c1ccc(C(=O)Nc2ccc(CN3CCS(=O)(=O)CC3)cc2)cc1 [Example 125, 6-Methyl-biphenyl-3,4′-dicarboxylic acid 4′-{[4-(1,1-dioxo-1lambda*6*-thiomorpholin-4-ylmethyl)-phenyl]-amide} 3-[(2-piperidin-1-yl-ethyl)-amide]] | – | – | 1000 to 5000 | * (key: * < 50 μM; ** > 50 μM) | – |
| Cc1ccc(C(=O)Nc2ccc(N(C)C)cc2)cc1-c1ccc(C(=O)Nc2ccc(CN3CCS(=O)(=O)CC3)cc2)cc1 [Example 130, 6-Methyl-biphenyl-3,4′-dicarboxylic acid 3-[(4-dimethylamino-phenyl)-amide] 4′-{[4-(1,1-dioxo-1lambda*6*-thiomorpholin-4-ylmethyl)-phenyl]-amide}] | – | – | < 1000 | * (key: * < 50 μM; ** > 50 μM) | – |
| CCCCS(=O)(=O)N1CCN(Cc2ccc(NC(=O)c3ccc(-c4cc(C(=O)Nc5ccc(N6CCOCC6)cc5)ccc4Cl)cc3)cc2)CC1 [Example 263, 6-Chloro-biphenyl-3,4′-dicarboxylic acid 4′-({4-[4-(butane-1-sulfonyl)piperazin-1-ylmethyl]-phenyl}-amide) 3-[(4-morpholin-4-yl-phenyl)-amide]] | – | – | < 1000 | * (key: * < 50 μM; ** > 50 μM) | – |
| CCCS(=O)(=O)N1CCN(Cc2ccc(NC(=O)c3ccc(-c4cc(NC(=O)C5CC5)ccc4C)cc3)cc2)CC1 [Example 243, 5′-(Cyclopropanecarbonyl-amino)-2′-methyl-biphenyl-4-carboxylic acid [4-(4-propane-1-sulfonyl-piperazin-1-ylmethyl)-phenyl]-amide] | < 1000 | * (* < 50 μM) | – | – | – |
| Cc1cc(C(=O)Nc2ccc(N3CCOCC3)cc2)ccc1-c1cccc(C(=O)Nc2ccc(-c3ccno3)cc2)c1 [Example 65, 2′-Methyl-biphenyl-3,4′-dicarboxylic acid 3-[(4-isoxazol-5-yl-phenyl)-amide] 4′-[(4-morpholin-4-yl-phenyl)-amide]] | – | – | < 1000 | * (key: * < 50 μM; ** > 50 μM) | – |
| Cc1cc(NC(=O)C2CC2)ccc1-c1cccc(C(=O)Nc2ccc(CN3CCS(=O)(=O)CC3)cc2)c1 [Example 131, 4′-(Cyclopropanecarbonyl-amino)-2′-methyl-biphenyl-3-carboxylic acid [4-(1,1-dioxo-1lambda*6*-thiomorpholin-4-ylmethyl)-phenyl]-amide] | 1000 to 5000 | * (* < 50 μM) | – | – | – |
| Cc1ccc(C(=O)Nc2ccc(-n3cncn3)cc2)cc1-c1ccc(C(=O)Nc2ccc(CN3CCS(=O)(=O)CC3)cc2)cc1 [Example 139, 6-Methyl-biphenyl-3,4′-dicarboxylic acid 4′-{[4-(1,1-dioxo-1lambda*6*-thiomorpholin-4-ylmethyl)-phenyl]-amide} 3-[(4-[1,2,4]triazol-1-yl-phenyl)-amide]] | – | – | < 1000 | * (key: * < 50 μM; ** > 50 μM) | – |
| Cc1ccc(NC(=O)c2cccs2)cc1-c1ccc(C(=O)Nc2ccc3cn[nH]c3c2)cc1 [Example 213, Thiophene-2-carboxylic acid [4′-(1H-indazol-6-ylcarbamoyl)-6-methyl-biphenyl-3-yl]-amide] | 1000 to 5000 | * (* < 50 μM) | – | – | – |
| Cc1ccc(C(=O)Nc2ccc(N3CCOCC3)cc2)cc1-c1ccc(CNCCc2cnc[nH]2)cc1 [Example 100, 4′-{[2-(3H-Imidazol-4-yl)-ethylamino]-methyl}-6-methyl-biphenyl-3-carboxylic acid (4-morpholin-4-yl-phenyl)-amide] | 1000 to 5000 | ** (** > 50 μM) | – | – | – |
| Cc1ccc(C(=O)Nc2ccc(N3CCOCC3)cc2)cc1-c1ccc(C(=O)Nc2cccc(C(=O)c3ccccc3)c2)cc1 [Example 19, 6-Methyl-biphenyl-3,4′-dicarboxylic acid 4′-[(3-benzoyl-phenyl)-amide] 3-[(4-morpholin-4-yl-phenyl)-amide]] | – | ** (** > 50 μM) | – | – | 1000 to 5000 |
| Cc1ccc(NC(=O)C2(C#N)CC2)cc1-c1ccc(C(=O)Nc2ccc(CN3CCS(=O)(=O)CC3)cc2)cc1 [Example 174, 5′-[(1-Cyano-cyclopropanecarbonyl)-amino]-2′-methyl-biphenyl-4-carboxylic acid [4-(1,1-dioxo-1lambda*6*-thiomorpholin-4-ylmethyl)-phenyl]-amide] | 1000 to 5000 | * (* < 50 μM) | – | – | – |
| Cc1cccc(CNC(=O)c2ccc(-c3cc(C(=O)Nc4ccc(N5CCOCC5)cc4)ccc3C)cc2)c1 [Example 3, 6-Methyl-biphenyl-3,4′-dicarboxylic acid 4′-(3-methyl-benzylamide) 3-[(4-morpholin-4-yl-phenyl)-amide]] | – | – | 1000 to 5000 | ** (key: * < 50 μM; ** > 50 μM) | – |
| COc1cccc(C(=O)Nc2ccc(-c3cc(C(=O)Nc4ccc(N5CCOCC5)cc4)ccc3C)cc2)c1 [Example 107, 4′-(3-Methoxy-benzoylamino)-6-methyl-biphenyl-3-carboxylic acid (4-morpholin-4-yl-phenyl)-amide] | < 1000 | ** (** > 50 μM) | – | – | – |
| COc1ccc(C(=O)Nc2ccc(N3CCOCC3)cc2)cc1-c1ccc(C(=O)Nc2ccc(CN3CCN(S(=O)(=O)N(C)C)CC3)cc2)cc1 [Example 259, 6-Methoxy-biphenyl-3,4′-dicarboxylic acid 4′-{[4-(4-dimethylsulfamoyl-piperazin-1-ylmethyl)-phenyl]-amide} 3-[(4-morpholin-4-yl-phenyl)-amide]] | – | – | < 1000 | * (key: * < 50 μM; ** > 50 μM) | – |
| Cc1ccc(C(=O)Nc2ccc(N3CCOCC3)cc2)cc1-c1ccc(C(=O)Nc2ccc(CN3CCCC3)cc2)cc1 [Example 75, 6-Methyl-biphenyl-3,4′-dicarboxylic acid 3-[(4-morpholin-4-yl-phenyl)-amide] 4′-[(4-pyrrolidin-1-ylmethyl-phenyl)-amide]] | – | – | > 5000 | * (key: * < 50 μM; ** > 50 μM) | – |
| Cc1ccc(C(=O)Nc2ccc(N3CCOCC3)cc2)cc1-c1ccc(C(=O)Nc2cccc(CN3CCSCC3)c2)cc1 [Example 69, 6-Methyl-biphenyl-3,4′-dicarboxylic acid 3-[(4-morpholin-4-yl-phenyl)-amide] 4′-[(3-thiomorpholin-4-ylmethyl-phenyl)-amide]] | – | – | < 1000 | * (key: * < 50 μM; ** > 50 μM) | – |
| O=C(Nc1ccc(CN2CCS(=O)(=O)CC2)cc1)c1ccc(-c2cc(NC(=O)C3CC3)ccc2Cl)cc1 [Example 194, 2′-Chloro-5′-(cyclopropanecarbonyl-amino)-biphenyl-4-carboxylic acid [4-(1,1-dioxo-1lambda*6*-thiomorpholin-4-ylmethyl)-phenyl]-amide] | < 1000 | * (* < 50 μM) | – | – | – |
| Cc1ccc(NC(=O)c2ccc(N3CCOCC3)cc2)cc1-c1ccc(C(=O)Nc2ccc3[nH]c(C(F)(F)F)nc3c2)cc1 [Example 85, 2′-Methyl-5′-(4-morpholin-4-yl-benzoylamino)-biphenyl-4-carboxylic acid (2-trifluoromethyl-1H-benzoimidazol-5-yl)-amide] | 1000 to 5000 | ** (** > 50 μM) | – | – | – |
| Cc1ccc(NC(=O)C2CC2)cc1-c1ccc(C(=O)Nc2ccc(CN3CCS(=O)(=O)CC3)cc2)cc1 [Example 132, 5′-(Cyclopropanecarbonyl-amino)-2′-methyl-biphenyl-4-carboxylic acid [4-(1,1-dioxo-1lambda*6*-thiomorpholin-4-ylmethyl)-phenyl]-amide] | < 1000 | * (* < 50 μM) | – | – | – |
| Cc1ccc(NC(=O)C2CC2)cc1-c1ccc(C(=O)Nc2ccc(-n3cncn3)cc2)cc1 [Example 218, 5′-(Cyclopropanecarbonyl-amino)-2′-methyl-biphenyl-4-carboxylic acid (4-[1,2,4]triazol-1-yl-phenyl)-amide] | < 1000 | * (* < 50 μM) | – | – | – |
| COc1ccccc1C(=O)Nc1ccc(-c2cccc(C(=O)Nc3ccc(N4CCOCC4)cc3)c2)c(C)c1 [Example 115, 4′-(2-Methoxy-benzoylamino)-2′-methyl-biphenyl-3-carboxylic acid (4-morpholin-4-yl-phenyl)-amide] | 1000 to 5000 | * (* < 50 μM) | – | – | – |
| Cc1ccc(C(=O)Nc2ccc(N3CCOCC3)cc2)cc1-c1ccc(C(=O)Nc2ccc(Cl)c(Cl)c2)cc1 [Example 22, 6-Methyl-biphenyl-3,4′-dicarboxylic acid 4′-[(3,4-dichloro-phenyl)-amide] 3-[(4-morpholin-4-yl-phenyl)-amide]] | – | – | 1000 to 5000 | ** (key: * < 50 μM; ** > 50 μM) | – |
| Cc1ccc(NC(=O)CC2CC2)cc1-c1ccc(C(=O)Nc2ccc(CN3CCS(=O)(=O)CC3)cc2)cc1 [Example 178, 5′-(2-Cyclopropyl-acetylamino)-2′-methyl-biphenyl-4-carboxylic acid [4-(1,1-dioxo-1lambda*6*-thiomorpholin-4-ylmethyl)-phenyl]-amide] | < 1000 | * (* < 50 μM) | – | – | – |
